Among the data in paper PMC11855827, “High-Throughput Screening of Five Compound Libraries for Anthelmintic Activity and Toxicity Leads to the Discovery of Two Flavonoid Compounds” (International Journal of Molecular Sciences, 2025) are inhibition values, retold here.

The assay concerns C. elegans. Kind of assay: microbe, parasite or virus in culture. The following applies: Caenorhabditis elegans.
[1] abbreviates: 0 h, read-out: Percentage of motility inhibition 0 h, Table S2, C. elegans SS assay, 110 μM, 0 h, averages of 4 data points.
Where [2] appears, read: 24 h, read-out: Percentage of motility inhibition 24 h, Table S2, C. elegans SS assay, 110 μM, 24 h, averages of 4 data points.
Where [3] appears, read: 0 h, read-out: Percentage of motility inhibition 0 h.
Where [4] appears, read: 24 h, read-out: Percentage of motility inhibition 24 h.

Read-outs that look alike come from different tables or passages of the source.

Consider `CC1=C2C(=O)[C@H]3[C@@H](CC=C4C[C@@H](O)CC[C@@]43C)[C@@H]2CC[C@]12O[C@@H]1C[C@H](C)CN[C@H]1[C@H]2C` [Jervine], for which the inhibition (usually the change of the read-out against control, counted positive when it falls) at 110 µM came out at 0% under setting [1] and 33% under setting [2].

With `COc1ccc(-c2oc3cc(O)cc(O)c3c(=O)c2O)cc1` [Kaempferide], the inhibition at 110 µM by setting is: under setting [1], 49%; under setting [2], 0%.

Take `C[C@@H]1O[C@@H](Oc2cc(O)c3c(=O)c(O[C@@H]4O[C@@H](C)[C@H](O)[C@@H](O)[C@H]4O)c(-c4ccc(O)cc4)oc3c2)[C@H](O)[C@H](O)[C@H]1O` [Kaempferitrin]: the inhibition at 110 µM runs as follows: under setting [1], 4%; under setting [2], 16%.

For `O=c1c(O)c(-c2ccc(O)cc2)oc2cc(O)cc(O)c12` [Kaempferol], the inhibition at 110 µM is 0% under setting [1] and 25% under setting [2].

Take `C=C(C)[C@H]1CN[C@H](C(=O)O)[C@H]1CC(=O)O` [Kainic acid]: the inhibition at 110 µM under setting [1] stood at 0% and the inhibition at 110 µM under setting [2] turned out to be 0%.

On to `C=C1C(=O)[C@@]23[C@H](O)C[C@@H]4C(C)(C)CC[C@H](O)[C@@]4(CO)[C@@H]2CC[C@@H]1[C@H]3O` [Kamebakaurin], for which the inhibition at 110 µM runs as follows: under setting [1], 0%; under setting [2], 11%.

`C=C1C[C@@]23CC[C@H]4[C@@](C)(CCC[C@@]4(C)C(=O)O)[C@@H]2CC[C@@H]1C3` [Kaurenoic acid]: the inhibition at 110 µM is, setting by setting: under setting [1], 0%; under setting [2], 7%.

For `CC(=O)N1CCN(c2ccc(OCC3COC(Cn4ccnc4)(c4ccc(Cl)cc4Cl)O3)cc2)CC1` (centres unmarked) [Ketoconazole], the inhibition at 110 µM amounted to 13% under setting [1] and 0% under setting [2].

`O=C1N[C@@H]2[C@@H](O)[C@@H](O)[C@H](O)[C@@H](CO)N2C1=O` [Kifunensine]: the inhibition at 110 µM under setting [1] was determined as 30% and the inhibition at 110 µM under setting [2] was found to be 5%.

Consider `C[C@@]1(CO)C[C@@H](O)C[C@@]2(C)[C@@H]3CC[C@](C)([C@@H](O)CO)C=C3CC[C@H]12` [Kirenol], for which the inhibition at 110 µM was 0% under setting [1] and 15% under setting [2].

`C=C[C@@]12CN(C)[C@H]3C[C@]14C(=Nc1ccccc14)[C@H]1C[C@@H]2[C@@H]3CO1` [Koumine]: the inhibition at 110 µM by setting is: under setting [1], 16%; under setting [2], 18%.

As to `O=C(CCc1ccc(O)c(O)c1)NCCCNCCCCNCCCNC(=O)CCc1ccc(O)c(O)c1` [Kukoamine A], the inhibition at 110 µM under setting [1] was 0% and the inhibition at 110 µM under setting [2] is 32%.

Consider `C=C(C)[C@H](CC=C(C)C)Cc1c(O)cc(OC)c2c1O[C@H](c1ccc(O)cc1O)CC2=O` [Kurarinone], for which the inhibition at 110 µM by setting is: under setting [1], 0%; under setting [2], 0%.

In the case of `C=C(C)[C@H](CC=C(C)C)Cc1c(O)cc(O)c2c1O[C@H](c1ccccc1O)CC2=O` [Kushenol A], the inhibition at 110 µM was found to be 14% under setting [1] and 10% under setting [2].

Turning to `N=C(N)NCCC[C@H](N)C(=O)O` [L-Arginine], the inhibition at 110 µM under setting [3] amounted to 0% and the inhibition at 110 µM under setting [4] was determined as 0%.

Take `O=C1O[C@H]([C@@H](O)CO)C(O)=C1O` [L-Ascorbic acid]: the inhibition at 110 µM is 5% under setting [1] and 9% under setting [2].

For `N[C@@H](CC(=O)O)C(=O)O` [L-Aspartic acid], the inhibition at 110 µM was 20% under setting [1] and 30% under setting [2].

As to `N[C@@H](CS)C(=O)O` [L-Cysteine], the inhibition at 110 µM was determined as 4% under setting [1] and 7% under setting [2].

Take `N[C@@H](CCC(=O)O)C(=O)O` [L-Glutamic acid]: the inhibition at 110 µM is 3% under setting [1] and 1% under setting [2].

`NC(=O)CC[C@H](N)C(=O)O` [L-Glutamine]: the inhibition at 110 µM reads like this: under setting [1], 3%; under setting [2], 0%.

In the case of `N[C@@H](Cc1c[nH]cn1)C(=O)O` [L-Histidine], the inhibition at 110 µM turned out to be 23% under setting [1] and 22% under setting [2].

As for `CC[C@H](C)[C@H](N)C(=O)O` [L-Isoleucine], the inhibition at 110 µM stood at 14% under setting [1] and 17% under setting [2].

`C[C@H](O)C(=O)O` [L-Lactic acid]: the inhibition at 110 µM was 16% under setting [1] and 21% under setting [2].

Regarding `CC(C)C[C@H](N)C(=O)O` [L-Leucine], the inhibition at 110 µM under setting [1] was 4% and the inhibition at 110 µM under setting [2] stood at 11%.

As for `NCCCC[C@H](N)C(=O)O` [L-Lysine], the inhibition at 110 µM runs as follows: under setting [3], 19%; under setting [4], 2%.

As for `CSCC[C@H](N)C(=O)O` [L-Methionine], the inhibition at 110 µM was 0% under setting [1] and 0% under setting [2].

Take `N[C@@H](Cc1ccccc1)C(=O)O` [L-Phenylalanine]: the inhibition at 110 µM runs as follows: under setting [1], 23%; under setting [2], 21%.

As for `O=C(O)[C@@H]1CCCN1` [L-Proline], the inhibition at 110 µM under setting [1] turned out to be 0% and the inhibition at 110 µM under setting [2] was determined as 0%.

On to `N[C@@H](CO)C(=O)O` [L-Serine], for which the inhibition at 110 µM runs as follows: under setting [1], 0%; under setting [2], 0%.

`N[C@@H](Cc1c[nH]c2ccccc12)C(=O)O` [L-Tryptophan]: the inhibition at 110 µM came to 26% under setting [3] and 3% under setting [4].

Consider `N[C@@H](Cc1ccc(O)cc1)C(=O)O` [L-Tyrosine], for which the inhibition at 110 µM worked out at 34% under setting [3] and 8% under setting [4].

For the compound `CC(C)[C@H](N)C(=O)O` [L-Valine], the inhibition at 110 µM worked out at 0% under setting [1] and 12% under setting [2].

For `CC12CC3OC4O[C@H](CO)[C@@H](O)[C@H](O)[C@H]4OC34CC1C4(COC(=O)c1ccccc1)C(=O)O2` (some centres unmarked) [Lactiflorin], the inhibition at 110 µM came out at 0% under setting [1] and 11% under setting [2].

On to `Nc1ccn([C@@H]2CS[C@H](CO)O2)c(=O)n1` [Lamivudine], for which the inhibition at 110 µM is, setting by setting: under setting [1], 23%; under setting [2], 5%.

On to `CC(=O)O[C@H]1C[C@H](O[C@H]2[C@@H](O)C[C@H](O[C@H]3[C@@H](O)C[C@H](O[C@H]4CC[C@@]5(C)[C@H](CC[C@@H]6[C@@H]5C[C@@H](O)[C@]5(C)[C@@H](C7=CC(=O)OC7)CC[C@]65O)C4)O[C@@H]3C)O[C@@H]2C)O[C@H](C)[C@H]1O[C@@H]1O[C@H](CO)[C@@H](O)[C@H](O)[C@H]1O` [Lanatoside C], for which the inhibition at 110 µM was 0% under setting [1] and 2% under setting [2].

Consider `CC[C@@H](C(=O)[C@@H](C)[C@@H](O)[C@H](C)CCc1ccc(C)c(O)c1C(=O)O)[C@H]1O[C@](CC)([C@H]2CC[C@](O)(CC)[C@H](C)O2)C[C@@H]1C` [Lasalocid], for which the inhibition at 110 µM under setting [1] worked out at 23% and the inhibition at 110 µM under setting [2] worked out at 21%.

With `COC(=O)N[C@H](C(=O)N1CC2(CC2)C[C@H]1c1nc(-c2ccc3c(c2)C(F)(F)c2cc(-c4ccc5[nH]c([C@@H]6[C@H]7CC[C@H](C7)N6C(=O)[C@@H](NC(=O)OC)C(C)C)nc5c4)ccc2-3)c[nH]1)C(C)C` [Ledipasvir], the inhibition at 110 µM was determined as 25% under setting [1] and 1% under setting [2].

Consider `COc1cc(C(=O)OCCCCNC(=N)N)cc(OC)c1O` [Leonurine], for which the inhibition at 110 µM came to 0% under setting [1] and 0% under setting [2].

Regarding `Cc1c(C)[n+](Cc2ccccc2)cn1Cc1ccccc1` [Lepidiline A], the inhibition at 110 µM is, setting by setting: under setting [1], 5%; under setting [2], 14%.

As for `CCc1nn(CCO)c(CC)c1Oc1cc(C#N)cc(C#N)c1` [Lersivirine], the inhibition at 110 µM under setting [1] was 18% and the inhibition at 110 µM under setting [2] was 8%.

On to `COc1cccc(N2CCN(C3=Nc4c(F)cccc4[C@H](CC(=O)O)N3c3cc(C(F)(F)F)ccc3OC)CC2)c1` [Letermovir], for which the inhibition at 110 µM came out at 24% under setting [1] and 0% under setting [2].

Take `N#Cc1ccc(C(c2ccc(C#N)cc2)n2cncn2)cc1` [Letrozole]: the inhibition at 110 µM under setting [1] was found to be 0% and the inhibition at 110 µM under setting [2] amounted to 0%.

For the compound `C[C@H]1COc2c(N3CCN(C)CC3)c(F)cc3c(=O)c(C(=O)O)cn1c23` [Levofloxacin], the inhibition at 110 µM amounted to 9% under setting [1] and 10% under setting [2].

With `COc1c(/C=C/C(=O)c2ccc(O)c(CC=C(C)C)c2)ccc(O)c1O` [Licochal cone D], the inhibition at 110 µM under setting [1] stood at 15% and the inhibition at 110 µM under setting [2] was 0%.

As to `C=C(C)[C@H](C)c1cc(/C=C/C(=O)c2ccc(O)cc2)c(OC)cc1O` [Licochal cone E], the inhibition at 110 µM runs as follows: under setting [1], 5%; under setting [2], 0%.

Regarding `Cc1nc(C)c(C)nc1C` [Ligustrazine], the inhibition at 110 µM reads like this: under setting [1], 0%; under setting [2], 2%.

On to `C=CC(C)(O)CCC=C(C)C` (centres unmarked) [Linalool], for which the inhibition at 110 µM stood at 14% under setting [3] and 20% under setting [4].

Consider `C/C1=C\CCC2=C[C@@H](OC2=O)c2c(C)coc2C1` [Linderalactone], for which the inhibition at 110 µM by setting is: under setting [1], 0%; under setting [2], 45%.

Turning to `C/C1=C\CC[C@]23O[C@H]2[C@@H](OC3=O)c2c(C)coc2C1` [Linderane], the inhibition at 110 µM is, setting by setting: under setting [1], 5%; under setting [2], 16%.

As to `O=C1C[C@@H](c2ccc(O[C@@H]3O[C@H](CO)[C@@H](O)[C@H](O)[C@H]3O)cc2)Oc2cc(O)ccc21` [Liquiriti n], the inhibition at 110 µM amounted to 45% under setting [1] and 14% under setting [2].

`C[C@@H]1[C@H]2[C@H](O[C@@H]3O[C@H](CO)[C@@H](O)[C@H](O)[C@H]3O)OC=C(C(=O)O)[C@H]2C[C@@H]1O` [Loganic acid]: the inhibition at 110 µM is, setting by setting: under setting [1], 28%; under setting [2], 29%.

Turning to `COC(=O)C1=CO[C@@H](O[C@@H]2O[C@H](CO)[C@@H](O)[C@H](O)[C@H]2O)[C@@H]2[C@@H](C)[C@@H](O)C[C@H]12` [Loganin], the inhibition at 110 µM is, setting by setting: under setting [1], 11%; under setting [2], 15%.
